Measured values from patent US20170360781A1, “PHARMACEUTICAL COMPOSITION COMPRISING BICYCLIC NITROGEN-CONTAINING AROMATIC HETEROCYCLIC AMIDE COMPOUND AS ACTIVE INGREDIENT” (Astellas Pharma Inc., priority 2014, published 2017).

What was measured:
Format in all cases: in vivo
[1] = test system: PIK3CA mutation-positive and BRAF mutation-positive RKO cells derived from human colorectal cancer; experiment: Anti-tumor test 2 on mice tumor-bearing human colorectal cancer-derived RKO cells; settings: Balb/c nude mice, 8 mg/kg oral once a day for 11 days, final measuring day
Experimental: 4 to 5 week old male Balb/c nude mice (CHARLES RIVER LABORATORIES JAPAN, INC.) were injected and implanted, under the skin on the back, with 3×10^6 PIK3CA mutation-positive and BRAF mutation-positive RKO cells, or 3×10^6 PIK3CA mutation-positive Colo201 cells, both derived from human colorectal cancer suspended to a mixed solution of PBS and Matrigel (registered trademark) in 1:1. Dividing into groups was performed when the tumor volume reached 100 to 250 mm^3, and administering of the test compounds was started. The test was performed on each of the 5 mice in the solvent group and the compound administered group. By oral administration, 6% cyclodextrin aqueous solution for the solvent group, and 6% cyclodextrin aqueous solution in which the test compound was mixed by the dosage shown in Table 4 for the compound administered group were administered. The administration was performed once a day for 11 days (RKO) or 21 days (Colo201), and the body weight and the tumor diameter were measured twice a week. For calculation of the tumor volume, the formula below was used.
(§1) [Tumor volume(mm^3)]=[major axis of tumor(mm)]×[minor axis of tumor(mm)]^2×0.5
(§2) The inhibition rate of tumor growth was calculated from the average value of the tumor volume according to the formula below.
Inhibition rate of tumor growth(%)=([…]average of tumor volume growth in each group/average of tumor volume growth in solvent group)×100

[2] = test system: Human AML-derived KG-1 cells; experiment: Anti-tumor test 2 on tumor-bearing mice transplanted with human AML-derived KG-1 cell; settings: KG-1, Balb/c nude mice, 8 mg/kg oral once a day for 21 days, final measuring day
Experimental: 4 to 5 weeks old male Balb/c nude mice (CHARLES RIVER LABORATORIES JAPAN, INC.) were injected and implanted, under the skin on the back, with 3×10^6 KG-1 cells suspended to a mixed solution of PBS and Matrigel (registered trademark) in 1:1. Dividing into groups was performed when tumor volume reached 100 to 200 mm^3, and administering of the test compounds was started. The test was performed on each of the 5 mice in the solvent group and the compound administered group. By oral administration, 6% cyclodextrin aqueous solution for the solvent group, and 6% cyclodextrin aqueous solution in which the test compound was mixed by the dosage shown in Table 6 for the compound administered group were administered. The administration was performed once a day for 21 days, and the body weight and the tumor diameter were measured twice a week. For calculation of the tumor volume, the formula below was used.
as §1
(§3) The inhibition rate of tumor growth and the rate of tumor regression were calculated from the average value of the tumor volume according to the formula below.
(§4) Inhibition rate of tumor growth(%)=(1−average of tumor volume growth in each group/average of tumor volume growth in solvent group)×100
(§5) Rate of tumor regression(%)=(1−average tumor volume in each group on measuring day/average tumor volume in each group when dividing groups)×100

[3] = test system: Human AML-derived KG-1 cells; experiment: Anti-tumor test 1 on tumor-bearing mice transplanted with human AML-derived KG-1 cell; settings: KG-1, Balb/c nude mice, final measuring day
Experimental: 4 week old male Balb/c nude mice (CHARLES RIVER LABORATORIES JAPAN, INC.) were injected and implanted, under the skin on the back, with 3×10^6 KG-1 cells, suspended to a mixed solution of PBS and Matrigel (registered trademark) in 1:1. After 16 days of implantation, administering of the test compounds was started. The test was performed on each of the 5 mice in the solvent group (6% cyclodextrin aqueous solution) and the test compound administered group (Test Compound Al was mixed to the solvent group by a dosage of 2, 4, or 8 mg/kg). The administration was performed once a day for 14 days by oral administration, and the body weight and the tumor diameter were measured twice a week. For calculation of the tumor volume, the formula below was used.
as §1, §3, §4, §5

[4] = test system: Human AML-derived MV-4-11 cells; experiment: Anti-tumor test 1 on tumor-bearing mice transplanted with human AML-derived MV-4-11 cell; settings: MV-4-11, NOD/SCID mice, 8 mg/kg oral once a day for 19 days, final measuring day
Experimental: 4 to 5 week old male NOD/SCID nude mice (CHARLES RIVER LABORATORIES JAPAN, INC.) were injected and implanted, under the skin on the back, with 5×10^6 MV-4-11 cells suspended to a mixed solution of PBS and Matrigel (registered trademark) in 1:1. After 7 days of implantation, administering of the test compounds was started. […] The administration was performed once a day for 19 days by oral administration, and the body weight and the tumor diameter were measured twice a week. For calculation of the tumor volume, the formula below was used.
as §1, §2, §4

[5] = test system: SU-DHL-4 cells derived from DLBCL; experiment: Anti-tumor test 2 on mice tumor-bearing DLBCL-derived SU-DHL-4 cells; settings: SU-DHL-4, Balb/c nude mice, 8 mg/kg oral once a day for 21 days, final measuring day
Experimental: 4 to 5 week old male Balb/c nude mice (CHARLES RIVER LABORATORIES JAPAN, INC.) were injected and implanted, under the skin on the back, with 3×10^6 DB cells or SU-DHL-4 cells both derived from DLBCL suspended to a mixed solution of PBS and Matrigel (registered trademark) in 1:1. Dividing into groups was performed when tumor volume reached 100 to 250 mm^3, and administering of the test compounds was started. The test was performed on each of the 5 mice in the solvent group and the compound administered group. By oral administration, 6% cyclodextrin aqueous solution for the solvent group, and 6% cyclodextrin aqueous solution in which the test compound was mixed by the dosage shown in Table 10 for the compound administered group were administered. The administration was performed once a day for 21 days by oral administration, and the body weight and the tumor diameter were measured twice a week. For calculation of the tumor volume, the formula below was used.
[Tumor volume(mm^3)]=[major axis of tumor(mm)]×[minor axis of tumor (mm)]^2×0.5
as §3, §4, §5

[6] = test system: PIK3CA mutation-positive and BRAF mutation-positive RKO cells derived from human colorectal cancer; experiment: Anti-tumor test 1 on mice tumor-bearing human colorectal cancer-derived RKO cells; settings: Balb/c nude mice, 8 mg/kg oral once a day for 10 days, final measuring day
Experimental: 5 to 6 week old male Balb/c nude mice (CHARLES RIVER LABORATORIES JAPAN, INC.) were injected and implanted, under the skin on the back, with 1.5×10^6 PIK3CA mutation-positive and BRAF mutation-positive RKO cells, or 3×10^6 PIK3CA mutation-positive Colo201 cells, both derived from human colorectal cancer suspended to a PBS solution or a mixed solution of PBS and Matrigel (registered trademark) in 1:1. Dividing into groups was performed when the tumor volume reached 100 to 300 mm^3, and administering of the test compounds was started. The test was performed on each of the 5 mice in a solvent group and a compound administered group. By oral administration, 6% cyclodextrin aqueous solution for the solvent group, and 6% cyclodextrin aqueous solution in which the test compound was mixed by 8 mg/kg for the compound administered group were administered. The administration was performed once a day for 10 days (RKO) or 14 days (Colo201), and the body weight and the tumor diameter were measured twice a week. For calculation of the tumor volume, the formula below was used.
as §1
The inhibition rate of tumor growth was calculated from the average value of the tumor volume according to the formula below. […]

COc1ccc(CN2CCC(c3ccc4[nH]c(C(=O)N5CCN(Cc6ccc(C(F)(F)F)cc6)CC5)nc4c3)CC2)cn1 [Compound A1, (5-{1-[(6-methoxypyridin-3-yl)methyl]piperidin-4-yl}-1H-benzimidazol-2-yl){4-[4-(trifluoromethyl)benzyl]piperazin-1-yl}methanone]
Inhibition rate RKO [1]: 48% | Inhibition rate of tumor growth [2]: 99% inhibition | Inhibition rate of tumor growth ([3]; 2 mg/kg oral once a day for 14 days): 54% inhibition | Inhibition rate of tumor growth ([3]; 4 mg/kg oral once a day for 14 days): 70% inhibition | Rate of tumor regression ([3]; 8 mg/kg oral once a day for 14 days): 8% regression | Inhibition rate of tumor growth [4]: 96% | Inhibition rate SU-DHL-4 [5]: 64% | Inhibition rate of tumor growth [6]: 67%
